These results are taken from ChEMBL document CHEMBL1128700 (J Med Chem, 1995).

For experiment [1], the system named is Human immunodeficiency virus type 1 reverse transcriptase (Human immunodeficiency virus 1), Q72547 [Y181C]. Conditions: 10 uM.
Description: Percent inhibitory activity against Y181C HIV type I reverse transcriptase at a concentration of 10 uM
Experiment [2] deals with Human immunodeficiency virus type 1 reverse transcriptase (Human immunodeficiency virus 1) (UniProt Q72547). Nature of the experiment: Percent inhibitory activity against wild type (WT) HIV type I reverse transcriptase at a concentration of 1 uM.

The structures appear in SMILES notation.

A word on the inhibition: it is how much of the control response was suppressed.

Consider `Cc1ccnc2c1NC(=O)c1cccnc1N2C1CC1`, for which the inhibition came to 59% in experiment [1] and 85% in experiment [2].
